Assay [1] is filed under the species Homo sapiens. In words: Inhibition of human liver Alpha-mannosidase relative to control.
Assay [2] in a line: Inhibition of human liver Alpha-mannosidase.
For assay [3], the target named is T1, Alpha-mannosidase (Canavalia ensiformis, UniProt C0HJB3).
T1 sequence (C0HJB3 whole entry): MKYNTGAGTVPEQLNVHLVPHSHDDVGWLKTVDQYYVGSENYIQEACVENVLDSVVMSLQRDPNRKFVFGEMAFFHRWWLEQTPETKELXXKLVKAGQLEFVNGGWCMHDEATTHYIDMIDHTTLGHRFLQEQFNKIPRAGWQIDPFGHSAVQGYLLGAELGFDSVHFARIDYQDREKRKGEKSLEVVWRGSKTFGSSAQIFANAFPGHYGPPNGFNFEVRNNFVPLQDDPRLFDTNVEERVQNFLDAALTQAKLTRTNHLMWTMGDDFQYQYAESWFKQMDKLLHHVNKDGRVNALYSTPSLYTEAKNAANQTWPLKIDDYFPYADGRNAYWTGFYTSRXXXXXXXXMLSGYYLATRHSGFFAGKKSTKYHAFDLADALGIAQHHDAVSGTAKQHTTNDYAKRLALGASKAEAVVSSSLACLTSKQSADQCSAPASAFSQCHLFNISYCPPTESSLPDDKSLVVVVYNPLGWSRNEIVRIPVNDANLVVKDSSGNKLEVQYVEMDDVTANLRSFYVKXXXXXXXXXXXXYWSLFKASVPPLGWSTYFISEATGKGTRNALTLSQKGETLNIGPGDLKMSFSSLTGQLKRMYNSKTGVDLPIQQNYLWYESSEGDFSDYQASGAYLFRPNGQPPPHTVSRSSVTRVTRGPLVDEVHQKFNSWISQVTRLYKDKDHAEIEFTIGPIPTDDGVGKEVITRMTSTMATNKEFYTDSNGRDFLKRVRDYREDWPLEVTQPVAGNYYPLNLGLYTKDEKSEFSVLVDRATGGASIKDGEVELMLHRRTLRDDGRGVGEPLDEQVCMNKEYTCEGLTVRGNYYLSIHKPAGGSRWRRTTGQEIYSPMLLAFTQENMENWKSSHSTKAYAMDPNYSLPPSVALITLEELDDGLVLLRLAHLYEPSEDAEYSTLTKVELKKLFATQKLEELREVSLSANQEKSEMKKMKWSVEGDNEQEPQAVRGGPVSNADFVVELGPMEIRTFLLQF
In words: Inhibition of jack bean Alpha-mannosidase using p-nitrophenyl glycoside as substrate.

Assay [4] relates to Prunus dulcis. In words: Inhibition of almond Beta-glucosidase using p-nitrophenyl glycoside as substrate assessed as release of p-nitrophenol at 1000 uM by spectrometric analysis relative to control.
Assay [5] has as its system HepG2. The experiment in a line: Cytotoxicity activity against human HepG2 cells incubated for 48 hrs by CCK-8 assay. The class given is functional, cell-based. Conditions: HepG2, 48 h.
Assay [6] has as its system Escherichia coli. The experiment in a line: Inhibition of Escherichia coli beta-glucuronidase using p-nitrophenyl glycoside as substrate assessed as release of p-nitrophenol at 1000 uM by spectrometric analysis relative to control.
Assay [7] concerns the target Alpha glucosidase (Homo sapiens) (UniProt O43451+P10253+P14410+Q2M2H8). In words: Inhibition of human Alpha-glucosidase using p-nitrophenyl glycoside as substrate assessed as p-nitrophenol release at 1000 uM by spectrometric analysis relative to control. The format is protein assay.
For assay [8], the system named is Penicillium decumbens. The experiment in a line: Inhibition of Penicillium decumbens alpha-L-rhamnosidase using p-nitrophenyl glycoside as substrate assessed as release of p-nitrophenol at 1000 uM by spectrometric analysis relative to control.
In assay [9] the test system is Helix pomatia. In words: Inhibition of snail beta-mannosidase using p-nitrophenyl glycoside as substrate assessed as release of p-nitrophenol at 1000 uM by spectrometric analysis relative to control.
The target of assay [10] is Alpha-galactosidase (Coffea arabica) (UniProt Q42656). In words: Inhibition of coffee bean alpha-galactosidase using p-nitrophenyl glycoside as substrate assessed as release of p-nitrophenol at 1000 uM by spectrometric analysis relative to control.
The test system of assay [11] is CAKI-1. The experiment in a line: Cytotoxicity activity against human CAKI-1 cells incubated for 48 hrs by CCK-8 assay. To be noted: CAKI-1, 48 h. The class given is functional, cell-based.
In assay [12] the target is Alpha-glucosidase (Saccharomyces cerevisiae S288c) (UniProt P53341+P38158+P07265). In words: Inhibition of yeast Alpha-glucosidase using p-nitrophenyl glycoside as substrate assessed as p-nitrophenol release at 1000 uM by spectrometric analysis relative to control. The class given is protein assay.
Assay [13] is filed under the species Rattus norvegicus. In words: Inhibition of rat intestinal Alpha-glucosidase using p-nitrophenyl glycoside as substrate assessed as p-nitrophenol release at 1000 uM by spectrometric analysis relative to control.
The species entered for assay [14] is Bos taurus. In words: Inhibition of bovine liver beta-galactosidase using p-nitrophenyl glycoside as substrate assessed as release of p-nitrophenol at 1000 uM by spectrometric analysis relative to control.
Assay [15] addresses T2, Alpha-mannosidase (Canavalia ensiformis) (UniProt C0HJB3).
T2 sequence (whole entry): T1 sequence (C0HJB3 whole entry)
In words: Inhibition of jack bean alpha-mannosidase using p-nitrophenyl glycoside as substrate assessed as release of p-nitrophenol at 1000 uM by spectrometric analysis relative to control.

The species entered for assay [16] is Bos taurus. In words: Inhibition of bovine liver beta-glucuronidase using p-nitrophenyl glycoside as substrate assessed as release of p-nitrophenol at 1000 uM by spectrometric analysis relative to control.
The species entered for assay [17] is Homo sapiens. The experiment in a line: Inhibition of human lysosome beta-glucosidase using p-nitrophenyl glycoside as substrate assessed as release of p-nitrophenol at 1000 uM by spectrometric analysis relative to control.
The species named for assay [18] is Bos taurus. In words: Inhibition of bovine liver beta-glucosidase using p-nitrophenyl glycoside as substrate assessed as release of p-nitrophenol at 1000 uM by spectrometric analysis relative to control.
Assay [19] is filed under the species Sus scrofa. In words: Inhibition of porcine kidney Alpha alpha-trehalase using p-nitrophenyl glycoside as substrate assessed as release of p-nitrophenol at 1000 uM by spectrometric analysis relative to control.
Assay [20] has as its system Aspergillus niger. In words: Inhibition of Aspergillus niger amyloglucosidase using p-nitrophenyl glycoside as substrate assessed as release of p-nitrophenol at 1000 uM by spectrometric analysis relative to control.
Assay [21] concerns 786-0. In words: Cytotoxicity activity against human 786-0 cells incubated for 48 hrs by CCK-8 assay. The class given is functional, cell-based. To be noted: 786-0, 48 h. Background: Tetrazolium assays rely on reduction of a dye to a coloured formazan, in cell work by metabolically active cells.

The source of these data is ChEMBL document CHEMBL6096649, “Enantiomeric C-6 fluorinated swainsonine derivatives as highly selective and potent inhibitors of α-mannosidase and α-l-rhamnosidase: Design, synthesis and structure-activity relationship study” (Eur J Med Chem, 2025).

The source made the active and inactive calls. The calls are words filed in the database; no cut-off is given here.

As usually defined, the inhibition is the percentage by which the read-out fell short of the control. In general, Ki refers to the equilibrium dissociation constant of an inhibitor or competing ligand from its target. The low end stands for higher affinity, the high end for lower affinity. As a reminder, the IC50 is the point on the concentration scale where inhibition reaches its midpoint. A high value points to weaker potency in that assay.

Chain of Alpha-galactosidase (Coffea arabica) (Q42656 16-378 limits assumed): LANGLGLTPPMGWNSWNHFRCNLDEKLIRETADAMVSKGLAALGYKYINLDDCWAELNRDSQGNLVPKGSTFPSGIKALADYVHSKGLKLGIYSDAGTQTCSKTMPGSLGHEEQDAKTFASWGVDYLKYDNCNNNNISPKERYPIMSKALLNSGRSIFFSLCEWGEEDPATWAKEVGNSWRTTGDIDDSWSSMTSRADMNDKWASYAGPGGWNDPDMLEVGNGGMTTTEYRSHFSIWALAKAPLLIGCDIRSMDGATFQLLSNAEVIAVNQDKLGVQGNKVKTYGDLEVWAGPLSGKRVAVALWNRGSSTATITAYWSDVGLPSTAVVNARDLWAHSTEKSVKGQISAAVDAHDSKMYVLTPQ

`CCCC[C@H]1CCN2C[C@@H](O)[C@@H](O)[C@H]2[C@@H]1O`: in [1], the inhibition entry is “inactive”.

As for `OC[C@H]1O[C@H](O[C@H]2[C@H]3[C@H](O)CCCN3C[C@H]2O)[C@H](O)[C@@H](O)[C@@H]1O`, in [1], the inhibition result is “inactive”.

For the molecule `NCC/N=C1/N[C@H](CO)[C@@H](O)[C@@H](O)[C@@H]1O`, the Ki in [2] turned out to be 6 µM; in assay [3], 0.006 µM.

With `O[C@H]1[C@H]2[C@H](O)C[C@@H](F)CN2C[C@H]1O`, the inhibition was found to be 0.5% in [4]; 0% in assay [6]; 5.6% in assay [7]; 8.3% in assay [8]; 0% in assay [9]; 0% in assay [10]. Moreover, the inhibition in assay [12] was determined as 2.2%; in [13] it was 22.8%; in assay [14] it was 0.8%; in assay [15], 0.5%; in assay [16], 2.6%; in [17] it was 0.4%. In addition, the figures for the inhibition in assay [18], in assay [19] and in [20] were 5.1%, 2.5% and 11.8%, respectively. The IC50 in assay [5], in [11] and in assay [21] was greater than 200 µM throughout.
